The values that follow come from patent US20150038435A1, “N-TERMINALLY MODIFIED OLIGOPEPTIDES AND USES THEREOF” (Novo Nordisk A/S, priority 2012, published 2015).

Starred links: 1 amine or outer side, 2 acyl side, 3 side chain; linkers in the order of their positions; H or OH if unused. Non-standard residues stand in square brackets, D forms with d. Primed or numbered codes have the meaning given here. No end group written: not given here. *: point of attachment. γGlu = O=C(O)[C@H](CCC(=O)[*:2])N[*:1]; Stearoyl = CCCCCCCCCCCCCCCCCC(=O)*; Palmitoyl = CCCCCCCCCCCCCCCC(=O)*; Myristoyl = CCCCCCCCCCCCCC(=O)*; Lauroyl = CCCCCCCCCCCC(=O)*; PEG12′ = not defined here

The test system of one assay is Chymotrypsin. Nature of the assay: Inhibition of enzymatic degradation of a model GLP-1 (FRET substrate) by chymotrypsin. The class given is biochemical. The settings on record: for EC50: read-out: EC50 Chymotrypsin (0.001 mg/ml), 0.001 mg/ml chymotrypsin, 37° C., ± standard error if at least 3 measurements. The source says: (§1) The use of Förster resonance energy transfer (FRET), also known as fluorescence resonance energy transfer, substrates to monitor activity of proteolytic enzymes is known in the field (for example Anjuere, F. et al. (1993). Biochem J 291 (Pt 3), 869-73).
(§2) Model GLP-1 analogue was designed as FRET substrate by incorporation of 7-Methoxycoumarin-4-acetic acid (MCA) group as the donor chromophore and dinitrophenol group (DNP) as the acceptor chromophore.
(§3) An assay following the increase in fluorescence as a function of time was established in 96 well format using Varioskan Flash Multimode Meter (Thermo Scientific). Each well contained 70 μl of Dulbecco's phosphate buffer saline (Invitrogen catalogue #14190-094), 10 μl of 100 μM GLP-1 FRET substrate, 10 μl of N-terminally acylated peptide or oligopeptide of the invention in varying concentration and 10 μl of a stock solution of an enzyme (chymotrypsin, trypsin, elastase, etc.). The incubations were performed at 37° C. Fluorescence (320 nm excitation wavelength and 405 nm emission wavelength) was measured immediately after addition of the enzyme to the 96 well plate and also every minute for at least the next 30 minutes. The concentration of the enzyme was optimized to allow determination of slopes for the time course of initial fluorescence increase with and without the N-terminally acylated peptides or oligopeptides of the invention. The slopes were determined by linear regression of the linear part of the fluorescence trace (for example, the first 10 min of the reaction). Each assay was performed in duplicate and average of the two traces was included in the calculations. The relative effect of N-terminally acylated peptide or oligopeptides of the invention on enzymatic degradation of GLP-1 FRET substrate was obtained by comparison of the slopes achieved by the same concentration of the N-terminally acylated peptide or oligopeptides. […] This was done by plotting the slopes achieved with different concentrations of the N-terminally acylated peptide or oligopeptides of the invention as a function of their concentrations and fitting the experimental results using, for example, sigmoidal logistic regression (2 parameters, Sigma Plot v 11). Inhibition constants for the interaction between the N-terminally acylated peptide or oligopeptides of the invention and proteolytic enzymes were also obtained by performing the assay described above with varying concentrations of the inhibitor and substrate and analyzing the results, for example, by double reciprocal transformation as known to the person skilled in the art and described for example in Hubalek, F. et al., J. Med. Chem. 47, 1760-1766 (2004).
(§4) The EC50 was determined for the following compounds. EC50±standard error is reported if the results of at least 3 independent measurements were available.

For another assay, the system named is Trypsin. The assay is described as follows: Inhibition of enzymatic degradation of a model GLP-1 (FRET substrate) by trypsin. The format is biochemical. The following applies: for EC50: read-out: EC50 Trypsin (0.001 mg/ml), 0.001 mg/ml trypsin, 37° C.
From the text: as §1, §2, §3, §4

Setting [1] is: compound 0.1 mM, buffer containing 8% DMSO.

In the case of “N-dodecanoyl-Ala-Ala-Ala-Ala-Ala-Pro-Phe-OH [Example 141]”, the EC50 with Chymotrypsin worked out at 57 µM; in the assay with Trypsin, 187 µM.

As for “N-dodecanoyl-Ala-Ala-Pro-His-OH (Lauroyl-AAPH-OH; SMILES CCCCCCCCCCCC(=O)N[C@@H](C)C(=O)N[C@@H](C)C(=O)N1CCC[C@H]1C(=O)N[C@@H](Cc1c[nH]cn1)C(=O)O) [Example 180]”, the EC50 in the assay with Chymotrypsin was greater than 500 µM.

In the case of “N-dodecanoyl-Ala-Pro-Phe-OH [Example 35]”, the EC50 in the assay with Chymotrypsin is 182 µM.

On to “N-dodecanoyl-Gly-Ala-Pro-Tyr-OH [Example 37]”, for which, in the assay on Chymotrypsin (setting [1]), the “Slope of the initial increase in fluorescence obtained during incubation with 0.001 mg/ml Chymotrypsin” value is 0.66. The “Slope of the initial increase in fluorescence obtained during incubation with 0.001 mg/ml Trypsin” value with Trypsin (setting [1]) was 1.78.

As to “N-dodecanoyl-Ile-Ala-Ala-Pro-Tyr-OH [Example 40]”, the “Slope of the initial increase in fluorescence obtained during incubation with 0.001 mg/ml Chymotrypsin” value in the assay with Chymotrypsin (setting [1]) amounted to 0.41. Further, in the assay on Trypsin (setting [1]), the “Slope of the initial increase in fluorescence obtained during incubation with 0.001 mg/ml Trypsin” value is on record as 1.31.

In the case of “N-dodecanoyl-Leu-Thr-Trp-Pro-Tyr-OH [Example 154]”, the EC50 in the assay on Chymotrypsin is 27 µM; in the assay with Trypsin, 151 µM.

Take “N-dodecanoyl-Lys-Ala-Ala-Pro-Tyr-OH [Example 44]”: in the assay with Chymotrypsin (setting [1]), the “Slope of the initial increase in fluorescence obtained during incubation with 0.001 mg/ml Chymotrypsin” value is 0.00. Besides, in the assay with Trypsin (setting [1]), the “Slope of the initial increase in fluorescence obtained during incubation with 0.001 mg/ml Trypsin” value turned out to be 0.96.

On to “N-dodecanoyl-Thr-Ala-Ala-Pro-Phe-OH [Example 172]”, for which the values for the EC50 in the assay on Chymotrypsin and with Trypsin were 132 µM and 401 µM, respectively.

Consider “N-dodecanoyl-βAla-βAla-Pro-Phe-Pro-OH [Example 6]”, for which the “Slope of the initial increase in fluorescence obtained during incubation with 0.001 mg/ml Chymotrypsin” value in the assay with Chymotrypsin (compound 1 mM) amounted to 0.24. The “Slope of the initial increase in fluorescence obtained during incubation with 0.001 mg/ml Trypsin” value in the assay with Trypsin (compound 1 mM) is 0.35.

Turning to “N-dodecanoyl-γGlu-Ala-Ala-Pro-Arg-Pro-OH [Example 27]”, the EC50 in the assay with Chymotrypsin is greater than 500 µM.

For “N-dodecanoyl-γGlu-His-Ala-Ala-Pro-Tyr-OH [Example 190]”, the EC50 with Chymotrypsin was greater than 500 µM.

As for “N-hexadecanoyl-Ala-Ala-Pro-Phe-OH (Palmitoyl-AAPF-OH) [Example 29]”, the EC50 was 23 ± 2 µM with Chymotrypsin and greater than 500 µM in the assay with Trypsin.

In the case of “N-hexadecanoyl-Glu-Ala-Ala-Pro-D-Phe-OH [Example 144]”, the EC50 in the assay with Chymotrypsin was found to be 40 µM; with Trypsin, 72 µM.

As for “N-hexadecanoyl-Glu-Ala-Ala-Pro-D-Phe-OH [Example 186]”, in the assay with Chymotrypsin, the EC50 worked out at 56 µM.

Take “N-hexadecanoyl-Thr-Ala-Ala-Pro-Phe-OH [Example 175]”: the values for the EC50 in the assay on Chymotrypsin and with Trypsin were 17 µM and 31 µM, respectively.

For the substance “N-hexadecanoyl-γGlu-Ala-Ala-Pro-Phe-OH [Example 32]”, the EC50 with Chymotrypsin is 29 ± 4 µM; in the assay on Trypsin, 66 µM.

For the substance “N-hexadecanoyl-γGlu-Ala-Ala-Pro-Phe-OH [Example 188]”, the results for the EC50 in the assay on Chymotrypsin and in the assay on Trypsin were 71 µM and 67 µM, respectively.

Turning to “N-hexadecanoyl-γGlu-Ala-Pro-Phe-OH (Palmitoyl-[γGlu]APF-OH; SMILES CCCCCCCCCCCCCCCC(=O)N[C@@H](CCC(=O)N[C@@H](C)C(=O)N1CCC[C@H]1C(=O)N[C@@H](Cc1ccccc1)C(=O)O)C(=O)O) [Example 149]”, the EC50 in the assay with Chymotrypsin was 48 µM; in the assay on Trypsin, 57 µM.

As for “N-hexadecanoyl-γGlu-D-Ala-D-Ala-D-Pro-D-Phe-OH [Example 157]”, the EC50 amounted to 57 µM in the assay with Chymotrypsin and 88 µM with Trypsin.

On to “N-hexadecanoyl-γGlu-D-Ala-D-Pro-D-Phe-OH [Example 182]”, for which the results for the EC50 with Chymotrypsin and in the assay with Trypsin were 67 µM and 33 µM, respectively.

As to “N-hexadecanoyl-γGlu-DAla-DPro-DPhe-OH [Example 155]”, the figures for the EC50 in the assay on Chymotrypsin and in the assay on Trypsin were 56 µM and 76 µM, respectively.

With “N-icosanoyl-γGlu-Ala-Ala-Pro-Phe-OH [Example 161]”, the EC50 came out at 4 µM with Chymotrypsin and 7 µM in the assay on Trypsin.

Consider “N-icosanoyl-γGlu-Ala-Pro-Phe-OH (icosanoyl-[γGlu]APF-OH) [Example 151]”, for which the EC50 worked out at 9 µM in the assay on Chymotrypsin and 13 µM in the assay with Trypsin.

For “N-octadecanoyl-γGlu-Ala-Ala-Pro-Phe-OH [Example 160]”, the EC50 turned out to be 17 µM in the assay on Chymotrypsin and 16 µM in the assay with Trypsin.

As for “N-octadecanoyl-γGlu-Ala-Pro-Phe-OH (Stearoyl-[γGlu]APF-OH; SMILES CCCCCCCCCCCCCCCCCC(=O)N[C@@H](CCC(=O)N[C@@H](C)C(=O)N1CCC[C@H]1C(=O)N[C@@H](Cc1ccccc1)C(=O)O)C(=O)O) [Example 150]”, the EC50 was determined as 13 µM in the assay on Chymotrypsin and 22 µM in the assay on Trypsin.

“N-tetradecanoy-γGlu-His-Ala-Ala-Pro-Tyr-OH [Example 191]”: the figures for the EC50 with Chymotrypsin and with Trypsin were 136 µM and 177 µM, respectively.

As for “N-tetradecanoyl-Ala-Ala-Ala-Ala-Pro-Phe-OH [Example 140]”, the EC50 with Chymotrypsin amounted to 28 µM; in the assay with Trypsin, 374 µM.

With “N-tetradecanoyl-Ala-Ala-Pro-D-Phe-OH [Example 185]”, the values for the EC50 with Chymotrypsin and in the assay with Trypsin were 73 µM and 44 µM, respectively.

As to “N-tetradecanoyl-Arg-His-Ala-Arg-Pro-Phe-OH [Example 197]”, the EC50 in the assay on Chymotrypsin was 2 µM; in the assay on Trypsin it was 16 µM.

Regarding “N-tetradecanoyl-D-Ala-D-Ala-D-Pro-D-Phe-OH [Example 184]”, the EC50 with Chymotrypsin came to 69 µM; with Trypsin, 38 µM.

Turning to “N-tetradecanoyl-D-His-D-Ala-D-Arg-D-Pro-D-Phe-OH [Example 195]”, the EC50 with Chymotrypsin is 17 µM; with Trypsin, 7 µM.

Consider “N-tetradecanoyl-Glu-Ala-Ala-Pro-D-Phe-OH [Example 174]”, for which, in the assay with Chymotrypsin, the EC50 was 211 µM.

Consider “N-tetradecanoyl-Glu-Ala-Ala-Pro-Phe-OH [Example 162]”, for which the EC50 turned out to be 94 µM with Chymotrypsin and 58 µM in the assay on Trypsin.

Consider “N-tetradecanoyl-Glu-Ala-Ala-Pro-Phe-OH [Example 163] (Myristoyl-EAAPF-OH; SMILES CCCCCCCCCCCCCC(=O)N[C@@H](CCC(=O)O)C(=O)N[C@@H](C)C(=O)N[C@@H](C)C(=O)N1CCC[C@H]1C(=O)N[C@@H](Cc1ccccc1)C(=O)O)”, for which the EC50 in the assay on Chymotrypsin turned out to be 94 µM; in the assay on Trypsin it was 271 µM.

Regarding “N-tetradecanoyl-Glu-Ala-Ala-Pro-Trp-OH [Example 143]”, the EC50 in the assay with Chymotrypsin came out at 14 µM; in the assay on Trypsin it was 388 µM.

As for “N-tetradecanoyl-Glu-Ala-Ala-Pro-Trp-OH [Example 187]”, the EC50 was determined as 14 µM with Chymotrypsin and 130 µM in the assay on Trypsin.

With “N-tetradecanoyl-Glu-Ala-Pro-Phe-OH (Myristoyl-EAPF-OH; SMILES CCCCCCCCCCCCCC(=O)N[C@@H](CCC(=O)O)C(=O)N[C@@H](C)C(=O)N1CCC[C@H]1C(=O)N[C@@H](Cc1ccccc1)C(=O)O) [Example 152]”, the EC50 in the assay with Chymotrypsin was found to be 293 µM.

On to “N-tetradecanoyl-His-Ala-Ala-Pro-Phe-OH [Example 166]”, for which the EC50 with Chymotrypsin was 61 µM; in the assay with Trypsin, 69 µM.

On to “N-tetradecanoyl-His-Ala-Trp-Pro-Phe-OH [Example 192]”, for which the EC50 in the assay on Chymotrypsin is 34 µM; with Trypsin, 303 µM.

As to “N-tetradecanoyl-Leu-Ala-Ala-Pro-Tyr-OH [Example 142]”, the EC50 is 20 µM in the assay on Chymotrypsin and 37 µM in the assay with Trypsin.

Consider “N-tetradecanoyl-Leu-Ala-Ala-Pro-Tyr-OH [Example 159]”, for which the results for the EC50 in the assay with Chymotrypsin and in the assay on Trypsin were 35 µM and 122 µM, respectively.

Consider “N-tetradecanoyl-Leu-betaAla-Ala-Pro-DPhe-OH [Example 145]”, for which the EC50 in the assay with Chymotrypsin was 83 µM; with Trypsin it was 43 µM.

Consider “N-tetradecanoyl-γGlu-Ala-Pro-D-Phe-OH [Example 168]”, for which the EC50 in the assay on Chymotrypsin was 377 µM.

For “N-tetradecanoyl-γGlu-Ala-Pro-Phe-OH [Example 181]”, the EC50 in the assay with Chymotrypsin is 300 µM.

As to “N-tetradecanoyl-γGlu-D-Ala-D-Pro-D-Phe-OH [Example 183]”, the EC50 with Chymotrypsin was found to be 386 µM.

Turning to “N-tetradecanoyl-γGlu-γGlu-Ala-Pro-Phe-OH [Example 169]”, in the assay on Chymotrypsin, the EC50 is 287 µM.

Regarding “N-tetradecanoyl-γGlu-γGlu-Phe-Phe-OH [Example 171]”, the EC50 with Chymotrypsin turned out to be 452 µM.

With “N-tetradecanoyl-γGlu-γGlu-Pro-Phe-OH [Example 170]”, in the assay on Chymotrypsin, the EC50 was greater than 500 µM.

In the case of “PEG12-Ala-Ala-Pro-Phe-OH ([PEG12′]AAPF-OH) [Example 167]”, the EC50 with Chymotrypsin is greater than 500 µM.
